# Patent EP2561886A1, “Peptide adjuvant for improved peripheral analgesia” (Forschungsverbund Berlin e.V., priority 2011, dated 2013)
# No end group written: not given here. TAMRA = 5(6)-carboxytetramethylrhodamine
# Experiments:
# [1] = tested on: perineurium of the sciatic nerve; assay: Mechanical nociceptive thresholds (paw pressure threshold, modified Randall-Selitto test) after perineurial injection at the sciatic nerve; assay type: in vivo, Male Wistar rats; settings: for Mechanical nociceptive thresholds (PPT) after injection of TTX: 10 µM TTX perineurially after peptide pretreatment (C1C2: 24-48 h); for mechanical nociceptive thresholds before the injection of DAMGO (Baseline) / mechanical nociceptive thresholds in contralateral paws: 400 µM peptide perineurially; for mechanical nociceptive thresholds in contralateral paws: contralateral paw
# Source text: Animals. Animal protocols were approved by the animal care committee of the Regierung von Unterfranken and are in accordance with the International Association for the Study of Pain (44). Male Wistar rats weighing 180-220 g were used.
# (§1) Perineurial Injection at the Sciatic Nerve. Nociceptive inputs from the rat hind paw travels through the sciatic nerve. Under brief isoflurane anesthesia, the right sciatic nerve was located using a 22 G needle connected to a nerve stimulator (Stimuplex Dig RC; Braun, Melsungen, Germany) as previously described (45). The needle was advanced to the point of maximal stimulation at 0.2 mA. 300 µl of the indicated substances was injected. If more than one injection within half hour was necessary the total injected volume was maintained at 300 µl.
# (§2) Peptides were dissolved in 0.9% NaCl and injected perineurially in the indicated concentrations. Measurements (nociceptive thresholds, tissue harvest for Western blot or immunohistochemistry) were undertaken 24-96 h after peptide injection.
# Measurements of Nociceptive Thresholds. Mechanical thresholds were determined using the paw pressure algesiometer (modified Randall-Selitto test; Ugo Basile, Comerio, Italy) as described before (47). The pressure required to elicit paw withdrawal, the paw pressure threshold (PPT), was determined in blinded experiments. Averages were calculated from three measurements each. An increase in PPT was interpreted as antinociception (analgesia), a decrease in PPT was interpreted as hyperalgesia (pain). Measurements were taken 10-60 min after injection of 100 µl containing 30 µg DAMGO or 10 µM TTX. The optimal doses of DAMGO or TTX have been evaluated in pilot studies (data not shown), but are similar to doses used for intraplantar injection in rats.
# Caco-2 cell monolayers [2] = assay: Transcellular electrical resistance (TER) of Caco-2 cell monolayers; assay type: cell-based, human; settings: for transcellular electrical resistance (TER): 300 µM
# Method: (§3) Measurements of Transcellular Electrical Resistance (TER) and Paracellular Permeability. 24-well transwell filters (Millicell-CM, Millipore, Eschborn, Germany) were coated with rat tail collagen (250 µg/cm^2) for 16 h, washed twice with PBS (phosphate buffer saline) and preincubated with DMEM (600 µl basolateral, 400 µl apical for Endohm electrodes and 400 µl basolateral, 500 µl apical for the cellZscope system (nanoAnalytics GmbH, Münster, Germany)) for 24 h. Caco-2 cells (200.000 cell/cm^2) were seeded into the filters and grown to high-resistance TER (> 500 Ω/cm^2) for approx. 4 days. Medium was changed every day.
# The experiments were performed as followed: After reaching high and stable TER values, cell monolayers were treated with peptides as described above. Control cells were incubated with respective medium. The TER values were measured at distinct time intervals. For re-arrangement of the monolayer, C1C2 was removed from the Caco-2 cells by exchange of the medium.
# Caco-2 cell monolayers [3] = assay: Paracellular permeability (permeation coefficient of FD-10 and Lucifer Yellow) of Caco-2 cell monolayers; assay type: cell-based, human; design: key to Paracellular Permeability: ↑ : increase; -: no change; settings: for permeation of FD-10: FD-10 (10 kDa); for permeation of FD-10 / permeation of Lucifer Yellow: 48 h after peptide administration; for permeation of Lucifer Yellow: Lucifer Yellow (0.4 kDa); for Paracellular Permeability: summary table of claudin-derived peptides
# Method: as §3
# The permeation studies were performed by addition of 25 µg/ml Lucifer Yellow (0.4 kDa) or FD-10 (fluorescein isothiocyanate-dextran, 10 kDa) in HBSS (Hank's balanced salt solution buffer) on the apical side and HBSS alone on the basolateral side. After 10 min, 100 µl probes were removed from the basolateral side and the fluorescence units were measured by a fluorescence plate reader (Tecan, Crailsheim, Germany) to calculate the PCoeff (permeation coefficient, cm/s). The obtained data were analyzed with GraphPad Prism 3.0 program (GraphPad Software, San Diego, USA).
# claudin-1 [4] = molecular target: T1, claudin-1 (Rattus norvegicus, UniProt P56745); assay: Western blot of claudin-1 in sciatic nerve fractions after perineurial injection; assay type: in vivo; settings: 400 µM perineurial injection
# T1 construct: from tissue; host or cells: sciatic nerve (perineurium) of male Wistar rats
# T1 sequence (P56745 1-211): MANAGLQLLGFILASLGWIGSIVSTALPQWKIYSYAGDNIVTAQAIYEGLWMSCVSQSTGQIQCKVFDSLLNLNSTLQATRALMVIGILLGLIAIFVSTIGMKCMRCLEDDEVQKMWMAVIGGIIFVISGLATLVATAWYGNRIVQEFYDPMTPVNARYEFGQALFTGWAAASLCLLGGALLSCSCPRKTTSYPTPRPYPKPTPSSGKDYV
# Method: as §1, §2
# Western Blot Analysis. […] Extracted protein was diluted in lysis buffer and quantified using the BCA protein assay reagent (Pierce, Rockford, IL, USA) and a plate reader (Tecan, Grödig, Austria). […] Proteins were detected using specific antibodies against claudin-1 (Invitrogen, Carlsbad, CA, USA) and as protein loading control […]-actin (Sigma Aldrich, Taufkirchen, Germany), respectively. Visualization was done by luminescence.
# claudin-1 [5] = molecular target: T2, claudin-1 (Homo sapiens, UniProt O95832); assay: Immunocytochemistry of claudin-1 and ZO-1 in Caco-2 cell monolayers; assay type: cell-based; settings: 300 µM, 24 and 48 h after treatment
# T2 construct: Caco-2 cells express several TJ proteins; endogenous in cells; host or cells: Caco-2
# T2 sequence (O95832 1-211): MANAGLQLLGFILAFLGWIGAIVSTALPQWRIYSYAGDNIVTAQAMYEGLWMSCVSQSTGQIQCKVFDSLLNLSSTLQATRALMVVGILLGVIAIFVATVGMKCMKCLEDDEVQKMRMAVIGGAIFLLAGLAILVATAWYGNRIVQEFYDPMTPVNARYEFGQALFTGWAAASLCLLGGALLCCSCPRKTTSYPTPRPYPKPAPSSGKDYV
# Method: Immunocytochemistry. Immunocytochemistry was performed as previously described (46). Caco-2 cells were transferred into 6-well plates containing collagen-coated cover-slips and grown to 60-70% confluence before use. Cells were treated with C1C2 (300 µM) as well as the control treated without peptide for 24 and 48 h, respectively. The medium was changed, followed by incubation with rabbit anti-claudin-1 and rabbit anti-ZO-1 (zonula occludens protein) antibodies and incubated with Alexa-Fluor 488-conjugated goat anti-rabbit secondary antibody. Cells were analyzed with the confocal microscope.
# claudin-1 [6] = molecular target: T1, claudin-1; assay: Immunohistochemistry of claudin-1 in the sciatic nerve after perineurial injection; assay type: in vivo; settings: 400 µM perineurial injection, after 24 h
# Method: as §1, §2
# The sciatic nerve was embedded in tissue-Tek compound (O.C.T., Miles Inc. Elkhart, Indiana) for claudin-1 staining. Sections (7-10 µm) were mounted onto gelatin-coated slides. Sections were fixed with acetone for 10 min at 4°C, washed in 0.01 M PBS (pH 7.4) for 10 min, incubated for 120 min in PBS containing 1% Triton X-100, washed in 0.01 M PBS and incubated for 30 min in 3% bovine serum albumin plus 1% normal goat serum blocking solution to prevent nonspecific binding. […] Finally, the sections were mounted and analyzed using the laser scanning microscope (Zeiss, Jena, Germany).
# wild type HEK-293 cells = assay: Confocal microscopy of peptide internalization in wild type HEK-293 cells; assay type: cell-based, human; settings: 40 µM, 24 h
# Method: (§4) Cell Culture. Caco-2 (colorectal adenocarcinoma) cells (41) were grown in a humidified atmosphere at 37 °C and 10% CO2, whereas HEK-293 (human embryonic kidney) cells (42) and HEK-293 cells stably transfected with claudin-1-YFP (yellow fluorescence protein) (43) were grown at 37 °C and 5% CO2. Cells were cultured in DMEM (Dulbecco's modified Eagle's medium) containing 10% fetal calf serum, 100 units/ml penicillin, 100 µg/ml streptomycin, and 1% L-analyl-L-glutamine.
# (§5) Confocal Microscopy. HEK-293 cells and stably claudin-1-YFP expressing HEK-293 cells were transferred into 6-well plates containing collagen-coated cover-slips as described above and grown to 60-70% confluence. Then, cells were treated with the TAMRA-labeled peptide (40 µM) for 15 min, 35 min, and 24 h, respectively. Pluronic ®F-68 (0.0012%) was added as solution enhancer. After removing of the peptide, cells were analyzed with the LSM 510 Meta confocal microscope (Zeiss, Jena, Germany).
# [7] = tested on: HEK-293 cells stably transfected with claudin-1-YFP; assay: Confocal microscopy of peptide internalization in claudin-1-YFP expressing HEK-293 cells; assay type: cell-based, human; settings: 40 µM
# Method: as §4, §5
substance,measurement,setting,value
"ESATHSTGITQSDIYSTLLGLPADIQAAQ-NH2 [Peptide C2C2, peptide from the C-terminal part of the ECL1 of rat claudin-2, same modifications as C1C2, applied as negative control, reference compound]",Mechanical nociceptive thresholds (PPT) after injection of TTX,[1],unchanged
same,"Mechanical nociceptive thresholds (paw pressure threshold, PPT) after injection of DAMGO",[1]; DAMGO perisciatic 0-4 d after perineurial peptide (400 µM),unchanged
same,transcellular electrical resistance (TER),"Caco-2 cell monolayers [2]; bilateral treatment, 24 h",unaffected
same,permeation of FD-10,Caco-2 cell monolayers [3],did not influence
same,permeation of Lucifer Yellow,Caco-2 cell monolayers [3],did not influence
"SSVSQSTGQIQSKVFDSLLNLNSTLQATR-NH2 [Peptide C1C2, 29 amino acid peptide derived from the C-terminal part of the ECL1 of rat claudin-1, Cys54/Cys64 substituted by serines, C-terminally amidated]",Mechanical nociceptive thresholds (PPT) after injection of TTX,[1],enhanced the effect of TTX
same,mechanical nociceptive thresholds before the injection of DAMGO (Baseline),[1]; 0 h,77.67 ± 1.8 g
same,mechanical nociceptive thresholds before the injection of DAMGO (Baseline),[1]; 24 h,74.67 ± 3.00 g
same,mechanical nociceptive thresholds before the injection of DAMGO (Baseline),[1]; 48 h,68.0 ± 2.02 g
same,mechanical nociceptive thresholds before the injection of DAMGO (Baseline),[1]; 72 h,69.00 ± 1.861 g
same,mechanical nociceptive thresholds before the injection of DAMGO (Baseline),[1]; 96 h,73.3 ± 2.87 g
same,mechanical nociceptive thresholds in contralateral paws,[1]; 0 h,77.33 ± 1.3 g
same,mechanical nociceptive thresholds in contralateral paws,[1]; 24 h,63.33 ± 2.36 g
same,mechanical nociceptive thresholds in contralateral paws,[1]; 48 h,67.67 ± 2.03 g
same,mechanical nociceptive thresholds in contralateral paws,[1]; 72 h,65.0 ± 1.25 g
same,mechanical nociceptive thresholds in contralateral paws,[1]; 96 h,67.67 ± 2.09 g
same,mechanical nociceptive thresholds (PPT) after DAMGO,"[1]; 24 h after perineurial 100 µM peptide, 10 min after 30 µg DAMGO",increase
same,PPT after DAMGO,"[1]; 48 h after perineurial 400 µM peptide, 10 min after 30 µg DAMGO",Significant increases
same,claudin-1 protein expression in the membrane,"claudin-1 [4]; 24 h and 48 h, membrane fraction",decreased
same,claudin-1 protein expression in the cytosol,claudin-1 [4]; cytosol fraction,No change
same,transcellular electrical resistance (TER),Caco-2 cell monolayers [2]; apical treatment,"significant reduction of the TER, but less efficient then the bilateral treatment"
same,TER,"Caco-2 cell monolayers [2]; bilateral application of 100, 200, and 300 µM",Time- and concentration-dependent reduction
same,transcellular electrical resistance (TER),"Caco-2 cell monolayers [2]; bilateral treatment, 24 h",significant reduction
same,recovery of the cell monolayer (barrier integrity) after removing peptide,"Caco-2 cell monolayers [2]; peptide removed at 48 h, read 24 h later, i.e. after 72 h",Complete recovery
same,membrane-localized claudin-1,claudin-1 [5],clear decrease
same,claudin-1 immunoreactivity in the perineurium,claudin-1 [6],decreased
same,permeation of FD-10,Caco-2 cell monolayers [3],increased
same,permeation of Lucifer Yellow,Caco-2 cell monolayers [3],increased
same,Paracellular Permeability,Caco-2 cell monolayers [3],↑
"TAMRA-SSVSQSTGQIQSKVFDSLLNLNSTLQATR-NH2 ({TAMRA}-SSVSQSTGQIQSKVFDSLLNLNSTLQATR-NH2) [TAMRA-C1C2, C1C2 N-terminally labeled with TAMRA (5(6)-carboxytetramethylrhodamine)]",internalization,wild type HEK-293 cells,weak unspecific internalization
same,Paracellular Permeability,Caco-2 cell monolayers [3],↑
same,intracellular co-localization with claudin-1-YFP,[7],mainly co-localized
same,membrane-localized claudin-1-YFP,[7]; 24 h after treatment,decrease
same,internalization,"[7]; 15 min, 35 min, 24 h",internalized
